{"source": "a melting point compilation (Tetko et al.; mined from patent text by program, amines drawn as free bases though some values may be those of a salt)", "data": [{"units": {"melting point": "°C"}, "values": [{"smiles": "CC(C)CC(NC(=O)COc1cccc2ccccc12)C(=O)NC(Cc1ccccc1)C(=O)CSCc1ccco1", "note": "(stereo not drawn)", "melting point": "118 to 120"}, {"smiles": "c1ccc(CN(CCNC(c2ccccc2)c2ccccc2)Cc2ccccc2)cc1", "melting point": "89 to 91"}, {"smiles": "COC(=O)COc1ccc(CC(C)=O)cc1", "melting point": 63}, {"smiles": "COc1cc(N)c(C(=O)N(C)C)cc1OC", "melting point": "94 to 103"}, {"smiles": "FCc1cccc(-c2ccc(-c3cn([C@H]4CN5CCC4CC5)nn3)s2)c1", "melting point": 144}, {"smiles": "Cc1nc(N)sc1-c1ccnc(Nc2ccc(N3CCOCC3)cc2)n1", "melting point": "300 to 304"}, {"smiles": "Cc1oc(-c2ccco2)nc1COc1ccc(COc2ncccc2CC#N)cc1", "melting point": "141 to 142"}, {"smiles": "COC(=O)c1sc(C)c2[nH]c(C(F)(F)C(F)(F)C(F)(F)F)nc12", "melting point": "147 to 148"}, {"smiles": "O=C(OC1CCCCC1)c1cncn1C(c1ccccc1)c1ccccn1", "note": "(stereo not drawn)", "melting point": 161}, {"smiles": "Cc1csc2ncc(C(O)CCc3ccc(Br)cc3)n12", "note": "(stereo not drawn)", "melting point": "175 to 178"}, {"smiles": "CS(=O)(=O)NC(=O)COc1ccc(CCCS(=O)(=O)c2ccc(Cl)cc2)cc1NC(=O)c1cccc(OCc2nc3ccccc3s2)c1", "melting point": 153}, {"smiles": "CCCCOC(=O)C=C(C)C=CC=C(C)C=Cc1c(C)cc(OC)c(C)c1C", "melting point": "80 to 81"}, {"smiles": "COC(C(=O)O)c1ccc2nc(-c3ccc(Cl)cc3)oc2c1", "note": "(stereo not drawn)", "melting point": "164 to 166"}, {"smiles": "CCOC(=O)c1ccc(NC(=O)c2ccc3c(c2)C(C)(C)CC(=O)N3C)cc1", "melting point": "175 to 177"}, {"smiles": "CCCN(CCC)Cc1nc(-c2ncn3c2[C@@H]2CCN2C(=O)c2ccccc2-3)no1", "melting point": "208 to 210"}, {"smiles": "Oc1ccc(N2CCN(CCC3C=Cc4ccccc43)CC2)cc1", "note": "(stereo not drawn)", "melting point": 228}, {"smiles": "CC(C)(C)c1cc(Nc2cccc(-c3nnn[nH]3)c2)cc(C(C)(C)C)c1O", "melting point": "231 to 233"}, {"smiles": "COc1cc(Nc2c(C#N)cnc3cc(Cl)c([N+](=O)[O-])cc23)cc(OC)c1OC", "melting point": "215 to 217"}, {"smiles": "CCC(Oc1cccc(OC)c1)C(=O)NCc1ccccc1", "note": "(stereo not drawn)", "melting point": "63 to 64"}, {"smiles": "OC1(c2ccccc2)CCN(CCc2c[nH]c3ccccc23)CC1", "melting point": "133 to 137"}, {"smiles": "O=C1OCCC1C(=O)c1ccccc1[N+](=O)[O-]", "note": "(stereo not drawn)", "melting point": "75 to 76"}, {"smiles": "CCC1c2c(ncn2C)CCN1C(=O)NC(C)C", "note": "(stereo not drawn)", "melting point": 220}, {"smiles": "COc1cc(CCNC(=O)[C@@H](N)C(C)C)ccc1OCC#Cc1ccc(Cl)cc1", "melting point": "115 to 117"}, {"smiles": "CC(C)(C)OC(=O)N1CCCC(C2=C(C#N)C(c3cccc4nonc34)c3c[nH]nc3N2)C1", "note": "(stereo not drawn)", "melting point": 229}, {"smiles": "Cn1ncnc1COc1nn2c(-c3ccccc3F)nncc2c1-c1ccccc1F", "melting point": 169}, {"smiles": "CSc1cc2c(cc1C(F)(F)F)N(C(=O)Nc1ccc(C(=O)O)cc1)CC2", "melting point": "> 200"}, {"smiles": "COC(=O)CS(=O)(=O)Nc1c(F)cc(F)cc1F", "melting point": "99 to 100"}, {"smiles": "NC(=S)c1cccc2c1CCCC2=O", "melting point": "200 to 205"}, {"smiles": "c1ccc(CN2CCC3(CC2)OCc2ccccc23)cc1", "melting point": "67 to 68.5"}, {"smiles": "Cn1cncc1CC(=O)c1ccc(Br)cc1", "melting point": 109}, {"smiles": "CC(=O)C1=C(O)C(=C(C)Nc2ccc(S)cc2)C(=O)OC1=O", "melting point": "207 to 210"}, {"smiles": "NC(=O)CNC(=O)c1cc(Cl)nc(Cl)c1", "melting point": "211 to 213"}, {"smiles": "O=C(O)CSC12CC3CC(CC(C3)C1)C2", "melting point": "71 to 73"}, {"smiles": "COc1ccc(C(O)C(C)=CC(=O)O)c(C(C)C)c1OC", "note": "(stereo not drawn)", "melting point": "154 to 155"}, {"smiles": "CCCCOc1ccc(S(=O)(=O)C2(C(=O)NO)CCN(Cc3ccccc3)CC2)cc1", "melting point": 144}, {"smiles": "C[C@H](c1ccccc1)n1c(N)nc2c(N)nc3ccccc3c21", "melting point": "135 to 140"}, {"smiles": "CCOC(=O)c1c(Cn2cncn2)nc2sc3c(c2c1-c1ccc(OC)c(OC)c1)CN(C(=O)OCc1ccccc1)CC3", "melting point": "169 to 170"}, {"smiles": "COc1ccc2c3c(cn2S(=O)(=O)c2c(C(C)C)cc(C(C)C)cc2C(C)C)C[C@H]2N(C)C(=O)CO[C@]2(C)c13", "note": "(relative stereo)", "melting point": "155 to 157"}, {"smiles": "COc1cccc(-c2c(NC(=O)Nc3c(C(C)C)cccc3C(C)C)c(=O)n(C)c3ncccc23)c1", "melting point": "169 to 170"}, {"smiles": "Nn1cccc1C(=O)c1ccccc1", "melting point": "65 to 69"}, {"smiles": "Cc1ccc(OC(=O)C=Cc2ccccc2)c(C(=O)O)c1", "melting point": 162}, {"smiles": "COc1ccc2c(c1C=O)Nc1ccccc1S2", "melting point": "155 to 160"}, {"smiles": "CCN(CC)C(=O)C(C)n1cc(C)c(-c2ccccc2)n1", "note": "(stereo not drawn)", "melting point": "55 to 57"}, {"smiles": "Cc1ccccc1Sc1cccc(CC(=O)O)c1O", "melting point": "96 to 97"}, {"smiles": "CC(C)(CO)NS(=O)(=O)c1cccc(NC(=O)c2cnn3c(C(F)F)cc(-c4ccc(Cl)cc4)nc23)c1", "melting point": 229}, {"smiles": "O=C1c2c(O)cccc2C(O)(c2cccc(C(F)(F)F)c2)c2cccc(O)c21", "melting point": "222 to 223"}, {"smiles": "CCCCCCCCCCOc1ccc(Oc2cccc(C(=O)O)c2)cc1CCC(=O)O", "melting point": "102 to 104"}, {"smiles": "O=C(CCCOc1cccc(CNC(=O)c2nc3ccccc3c(=O)[nH]2)c1)NO", "melting point": "164 to 168"}, {"smiles": "Cc1csc2[nH]cc(C(=O)c3ccc(Cl)cc3)c12", "melting point": 223}, {"smiles": "COc1c(C#N)cc([N+](=O)[O-])cc1C#N", "melting point": "144 to 148"}, {"smiles": "NC(=O)c1cnc2c(F)c(F)ccc2c1", "melting point": 250}, {"smiles": "O=S(=O)(Nc1ncnc(Cl)c1Cc1cccc2ccccc12)c1ccc(Cl)cc1", "melting point": "202 to 203"}, {"smiles": "CCOC(=O)c1c(N)nc(C)c(C(=O)CCCCCCCCCCBr)c1-c1cccc([N+](=O)[O-])c1", "melting point": "73 to 74"}, {"smiles": "CN(C)[C@H]1CCC[C@H]1C(=O)O", "note": "(relative stereo)", "melting point": "82 to 84"}, {"smiles": "CCOC(=O)c1cccc2c(=O)cc(-c3ccc(OCc4ccc5ccccc5c4)cc3)oc12", "melting point": "245 to 249"}, {"smiles": "Cn1cnc(COc2ccc(-c3cc(-c4nc(C(C)(C)C)[nH]c4-c4ccccn4)ccn3)cc2)c1", "melting point": 156}, {"smiles": "COC(=O)C1(OC)CC(O)C(NC(C)=O)C(C(O)C(O)CO)O1", "note": "(stereo not drawn)", "melting point": "161 to 167"}, {"smiles": "COc1cccc([C@H]2O[C@H](CC(=O)Nc3cc(C(=O)O)ccc3C)C(=O)N(CC(C)(C)CO)c3ccc(Cl)cc32)c1OC", "melting point": "172 to 173"}, {"smiles": "O=C(CO)NCc1ccc2ccn(C3CCN(CCc4ccc(F)cc4)CC3)c2c1", "melting point": "76 to 78"}, {"smiles": "CN(C)C(=S)SC(C[N+](=O)[O-])c1cc([N+](=O)[O-])ccc1Cl", "note": "(stereo not drawn)", "melting point": "120 to 121"}, {"smiles": "Cc1ccc(Cl)cc1NC(=S)Nc1cc[nH]n1", "melting point": "221 to 222"}, {"smiles": "Cc1cc(Oc2c(Cl)cc(C(F)(F)F)cc2Cl)nn1C(=O)NCc1ccccn1", "melting point": "121 to 123"}, {"smiles": "O=[N+]([O-])c1ccc2c(c1)O[C@@H](CNCc1ccccc1)CO2", "melting point": 98}, {"smiles": "COc1ccc(C(=Cn2cc[nH]c2=O)CC(=O)O)cc1OC1CCCC1", "melting point": 194}, {"smiles": "CCCCCCCCCCCCS(=O)(=O)NN(C(=O)c1ccccc1)c1cc(Cl)c(C)cc1O", "melting point": "124 to 125"}, {"smiles": "COc1ccc(-c2csc(Nc3cc(OC)ccc3OC)n2)cc1", "melting point": 104}, {"smiles": "Cc1ccc2c(c1)C(=O)c1ccc(-c3nnn[nH]3)cc1S2(=O)=O", "melting point": 267}, {"smiles": "O=C(CNC(=O)OCc1ccccc1)NCC1CCCCC1", "melting point": "95 to 98"}, {"smiles": "CCOCc1nc2c(N)nc(C)c(C)c2n1CC(C)C", "melting point": "110 to 112"}, {"smiles": "COC(=O)c1ccc(N(C)C)cc1C(=O)OC", "melting point": "54 to 57"}, {"smiles": "COP(=O)(O)CNc1cc(Cl)c(Oc2ccc(O)c3ccccc23)c(Cl)c1", "melting point": "85 to 87"}, {"smiles": "O=[N+]([O-])c1cccnc1NCc1ccccc1", "melting point": "81 to 82"}, {"smiles": "CONC(=O)CC(C#Cc1ccccc1)c1ccc(OC)c(OC2CCCC2)c1", "note": "(racemic)", "melting point": "111 to 114"}, {"smiles": "O=c1ccnc(NCCN(Cc2ccccc2)c2ccccn2)[nH]1", "melting point": "187 to 190"}, {"smiles": "CCOC(=O)c1ccc(N2CCC(NCC(O)COc3cccc([N+](=O)[O-])c3N)CC2)nc1", "note": "(stereo not drawn)", "melting point": "140 to 142"}, {"smiles": "COc1ccccc1C=Cc1nc2c([nH]1)c(=O)n(C)c(=O)n2C", "melting point": "> 300"}, {"smiles": "CC1CN(Cc2ccccc2)Cc2cc(-c3ccccc3)n(Cc3ccccc3)c21", "note": "(stereo not drawn)", "melting point": 131}, {"smiles": "Cc1nc(C(F)(F)F)ccc1C(=O)C1=C(S(=O)(=O)c2ccccc2)CCCC1=O", "melting point": "165 to 167"}, {"smiles": "CN(C)Cc1c(-c2ccccc2)nc2c(C(=O)NC(C#N)c3cccc(F)c3)cccn12", "note": "(stereo not drawn)", "melting point": "123 to 124"}, {"smiles": "CC(C)(C)OC(=O)NCc1cc(C(C)(C)C)cc(Cl)c1O", "melting point": "161 to 163"}, {"smiles": "CN(C)c1ccc(C(=O)Nc2ccc3ccc(Cl)nc3n2)cc1", "melting point": 248}, {"smiles": "CCc1nc2cc(C(C)=O)ccc2n1-c1ccc(CCOC(=O)NS(=O)(=O)c2ccc(C)cc2)cc1", "melting point": "188 to 190"}, {"smiles": "CCOC(=O)CC(NC(=O)c1ccccc1)C(=O)c1ccco1", "note": "(stereo not drawn)", "melting point": "75 to 76"}, {"smiles": "O=C(NCCN1C(=O)C2(COc3cc4c(cc32)OCO4)c2ccccc21)c1ccccc1OC(F)(F)F", "note": "(stereo not drawn)", "melting point": "183 to 184"}, {"smiles": "COc1cc(COc2cccc3c2CN(C2CCC(=O)NC2=O)C3=O)ccc1OCCN(C)C", "note": "(stereo not drawn)", "melting point": "190 to 192"}, {"smiles": "Cc1noc(C)c1-c1cn(Cc2ccccc2)c(=O)c2ncccc12", "melting point": "168 to 170"}, {"smiles": "O=C1OC(CCCCN2CCN(c3ccccc3)CC2)CN1c1ccccc1", "note": "(stereo not drawn)", "melting point": "83 to 85"}, {"smiles": "CCOC(=O)C(CC)Cc1ccc(NC(=O)c2ccc(Cl)cc2)cc1", "note": "(stereo not drawn)", "melting point": "119 to 120"}, {"smiles": "CC(O)=C1C(c2ccccc2)=C(c2ccc(S(C)(=O)=O)cc2)C1(Cl)Cl", "melting point": "194 to 195"}, {"smiles": "CCCCCCC1CC(c2ccc(CCCC)cc2)C(=O)O1", "note": "(stereo not drawn)", "melting point": 37.7}, {"smiles": "Cn1c(=O)c2c(ncn2CC(O)CN2CCN(CCCS(=O)(=O)c3ccccc3)CC2)n(C)c1=O", "note": "(stereo not drawn)", "melting point": 168}, {"smiles": "Clc1ccccc1C1=NOC(c2ccccc2Cl)N1", "note": "(stereo not drawn)", "melting point": "75 to 78"}, {"smiles": "CN(C)CCNc1ccc(C=O)c2sc3ccc(O)cc3c(=O)c12", "melting point": "219 to 220"}, {"smiles": "CC(=O)OCC1CCc2cc3ccccc3n2CC1", "note": "(stereo not drawn)", "melting point": "77 to 79"}, {"smiles": "Cc1cc(C(=O)Nc2ccc(C(=O)O)cc2)on1", "melting point": "> 300"}, {"smiles": "COC(=O)c1nc(CN(C)C)n(-c2ccc(Cl)cc2C(=O)c2ccccc2)n1", "melting point": "118 to 121"}, {"smiles": "O=C1CC(C(=O)O)(c2ccc(F)cc2)c2ccccc21", "note": "(stereo not drawn)", "melting point": "106 to 108"}, {"smiles": "O=C(c1cccs1)c1cnn2c(-c3cccc(NC(=O)C4CC4)c3)ccnc12", "melting point": "191 to 192"}]}]}
